# Assays:
# human CB1 receptor [1] = target: T1, human CB1 receptor (Homo sapiens, UniProt P21554); assay: Functional cell-based assay, CB1 receptor mediated change in CRE β-gal expression; design: expressed in transfected cells; host or cells: SK-N-MC cells; conditions: SK-N-MC cells with CRE β-gal and human CB1; forskolin treated; β-galactosidase activity; read-out: EC50 value for functional activity as a CB1 receptor functional inverse agonist
# Source text: The CB1 and CB2.receptors are G-protein coupled receptors (GPCR) that influence cell function via the Gi-protein. These receptors modulate the activity of intracellular adenylate cyclase, which in turn produces the intracellular signal messenger cyclic-AMP (cAMP).
# At baseline, or during non-ligand bound conditions, these receptors are constitutively active and tonically suppress adenylate cyclase activity. The binding of an agonist causes further receptor activation and produces additional suppression of adenylate cyclase activity. The binding of an inverse agonist inhibits the constitutive activity of the receptors and results in an increase in adenylate cyclase activity.
# Test compounds were evaluated in SK-N-MC cells which, using standard transfection procedures, were stably transfected with human cDNA for pcDNA3-CRE β-gal and pcDNA3 CB1 receptor (human) or pcDNA3 CB2 receptor (human). By expressing CRE β-gal, the cells produced β-galactosidase in response to CRE promoter activation by cAMP. Cells expressing CRE β-gal and either the human CB1 or CB2 receptor will produce less β-galactosidase when treated with a CB1/CB2 agonist and will produce more β-galactosidase when treated with a CB1/CB2 inverse agonist.
# The cells were grown in 96-well plates under standard cell culture conditions at 37° C. in a 5% CO2 atmosphere. After 3 days, the media was removed and a test compound in media (wherein the media was supplemented with 2 mM L-glutamine, […] sodium pyruvate, 0.1% low fatty acid FBS (fetal bovine serum) and antibiotics) was added to the cell. The plates were incubated for 30 minutes at 37° C. and the plate cells were then treated with forskolin over a 4-6 hour period, then washed and lysed. The β-galactosidase activity was quantitated using commercially available kit reagents (Promega Corp. Madison, Wis.) and a Vmax Plate Reader (Molecular Devices, Inc).
# For cells expressing CRE β-gal and the CB1 receptor, CB1 agonists reduced β-galactosidase activity in a dose-dependent manner and CB1 inverse agonists increased β-galactosidase activity in a dose-dependent manner.
# The change in β-galactosidase activity was determined by setting a vehicle treated cell's activity value at 100% and expressing the β-galactosidase activity measured in a corresponding compound treated cell as a percent of the vehicle treated cell activity.
# The EC50 value for functional activity for compounds tested was calculated by linear regression and was obtained from studies in which varying compound concentrations were used.
# human CB2 receptor = target: T2, human CB2 receptor (Homo sapiens, UniProt P34972); assay: Binding assay for CB2 agonists or inverse agonists ([3H]-CP-55,940 displacement); conditions: test concentration of 0.2 μM; membranes of SK-N-MC cells expressing human CB2
# T2 construct: expressed in transfected cells; host or cells: SK-N-MC cells (semi-purified membrane pellet)
# T2 sequence (P34972 whole entry): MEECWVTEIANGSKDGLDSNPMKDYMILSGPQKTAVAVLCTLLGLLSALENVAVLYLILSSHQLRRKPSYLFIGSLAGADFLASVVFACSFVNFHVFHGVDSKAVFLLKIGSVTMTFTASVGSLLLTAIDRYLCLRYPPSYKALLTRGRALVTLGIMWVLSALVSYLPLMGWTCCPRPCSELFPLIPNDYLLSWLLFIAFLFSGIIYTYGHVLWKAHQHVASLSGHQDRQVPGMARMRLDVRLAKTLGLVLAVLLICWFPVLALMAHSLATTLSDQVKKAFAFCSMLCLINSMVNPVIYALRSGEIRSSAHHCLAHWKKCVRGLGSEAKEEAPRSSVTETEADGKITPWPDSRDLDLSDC
# Procedure: (§1) The human CB1 and CB2 receptors were stably expressed in SK-N-MC cells transfected with pcDNA3 CB1 (human) or pcDNA3 CB-2 (human). The cells were grown in T-180 cell culture flasks under standard cell culture conditions at 37° C. in a 5% CO2 atmosphere. The cells were harvested by trysinization and homogenized in a homogenization buffer (10 mM Tris, 0.2 mM MgCl2, 5 mM KCl, with protease inhibitors aprotinin, leupeptin, pepstatin A and bacitracin) and centrifuged (2000 g). The supernatant was then centrifuged in 2M sucrose (31,300 g) to produce a semi-purified membrane pellet. The pellet was resuspended in homogenization and stored at −80° C.
# (§2) On the day of the assay, the pellet was thawed on ice and diluted in assay buffer (50 mM Tris-HCl, 5 mM MgCl2, 2.5 mM EDTA, 0.5 mg/mL fatty acid free bovine serum albumin, pH 7.5). […] Non-specific binding was measured in wells containing WIN 55,212 (10 uM). […] The Unifilter plate was dried, a scintillation cocktail was added to each well and the counts representing binding were quantitated in a TopCount scintillation counter.
# (§3) For compounds tested, an IC50 binding value was obtained from percent inhibition studies in which various test concentrations were used. The binding value was calculated by linear regression. […]
# human CB1 receptor [2] = target: T1, human CB1 receptor; assay: Binding assay for CB1 agonists or inverse agonists ([3H]-CP-55,940 displacement); design: expressed in transfected cells; host or cells: SK-N-MC cells (semi-purified membrane pellet); conditions: test concentration of 0.2 μM; membranes of SK-N-MC cells expressing human CB1
# Procedure: as §1, §2, §3
# T1 sequence (P21554 whole entry): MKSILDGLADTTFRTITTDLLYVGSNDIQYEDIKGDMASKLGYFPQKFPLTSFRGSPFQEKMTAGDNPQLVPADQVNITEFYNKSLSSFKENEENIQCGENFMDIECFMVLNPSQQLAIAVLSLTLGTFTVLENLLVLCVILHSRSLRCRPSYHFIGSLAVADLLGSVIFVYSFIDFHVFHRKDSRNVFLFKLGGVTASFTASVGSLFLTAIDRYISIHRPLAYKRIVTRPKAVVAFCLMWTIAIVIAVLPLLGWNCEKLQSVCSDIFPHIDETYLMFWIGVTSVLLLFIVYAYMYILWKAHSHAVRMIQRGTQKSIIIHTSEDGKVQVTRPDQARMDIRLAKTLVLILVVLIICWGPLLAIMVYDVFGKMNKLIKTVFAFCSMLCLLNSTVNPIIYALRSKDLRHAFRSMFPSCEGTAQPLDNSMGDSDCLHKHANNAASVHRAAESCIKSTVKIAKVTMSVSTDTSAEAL
Compound,EC50 (human CB1 receptor [1]) [nM],CB2 binding (human CB2 receptor) [%],CB1 binding (human CB1 receptor [2]) [%]
"C[N+]1(NC(=O)c2nn(-c3ccc(Cl)cc3Cl)c3c2CCC/C3=C\c2ccc(F)cc2)CCCCC1 [Compound 4, (7E)-1-{[1-(2,4-dichloro-phenyl)-7-(4-fluoro-benzylidene)-4,5,6,7-tetrahydro-1H-indazole-3-carbonyl]-amino}-1-methyl-piperidinium]",7.2,,
"O=C(NN1C=CCCC1)c1nn(-c2ccc(Cl)cc2Cl)c2c1CCC/C2=C\c1ccc(F)cc1 [Compound 5, (7E)-1-(2,4-dichloro-phenyl)-7-(4-fluoro-benzylidene)-4,5,6,7-tetrahydro-1H-indazole-3-carboxylic acid(3,4-dihydro-2H-pyridin-1-yl)-amide]",1.4,,
"O=C(NN1CCC(O)CC1)c1nn(-c2ccc(Cl)cc2Cl)c2c1CCC/C2=C\c1ccc(F)cc1 [Compound 1, (6E)-1-(2,4-dichloro-phenyl)-7-(4-fluoro-benzylidene)-4,5,6,7-tetrahydro-1H-indazole-3-carboxylic acid (4-hydroxy-piperidin-1-yl)-amide]",40,,
"COC1CCN(NC(=O)c2nn(-c3ccc(Cl)cc3Cl)c3c2CCC/C3=C\c2ccc(F)cc2)CC1 [Compound 2, (7E)-1-(2,4-dichloro-phenyl)-7-(4-fluoro-benzylidene)-4,5,6,7-tetrahydro-1H-indazole-3-carboxylic acid(4-methoxy-piperidin-1-yl)-amide]",4,,
"O=C(NN1CCCCC1=O)c1nn(-c2ccc(Cl)cc2Cl)c2c1CCC/C2=C\c1ccc(F)cc1 [Compound 3, (7E)-1-(2,4-dichloro-phenyl)-7-(4-fluoro-benzylidene)-4,5,6,7-tetrahydro-1H-indazole-3-carboxylic acid(2-oxo-piperidin-1-yl)-amide]",,28,19

# Reference: patent publication US20070117857A1, “Substituted 3-amido-tetrahydro-indazolyl cannabinoid modulators” (priority 2005, published 2007)
